Assay results reported in ChEMBL document CHEMBL3885881, “DrugMatrix”.

Organism: Rattus norvegicus
Assay: DrugMatrix - Regimen: Daily Repeat
Assay type: toxicity, organism-based, Sprague-Dawley
Set-up: regimen Daily Repeat, gender Male, age 6-8 weeks
Conditions: in vivo, po, route oral GAVAGE, […]; for ABSOLUTE BASOPHIL / ABSOLUTE EOSINOPHIL / ABSOLUTE LYMPHOCYTE / ABSOLUTE MONOCYTE / ABSOLUTE SEGMENTED NEUTROPHIL / BASOPHIL / EOSINOPHIL / ERYTHROCYTE COUNT / HEMATOCRIT / HEMOGLOBIN / LEUKOCYTE COUNT / LYMPHOCYTE / MEAN CORPUSCULAR HEMOGLOBIN / MEAN CORPUSCULAR VOLUME / MONOCYTE / NEUTROPHIL / NUCLEATED RED BLOOD CELLS / PLATELET COUNT: tissue Blood; for ALANINE AMINOTRANSFERASE / ALBUMIN / ALKALINE PHOSPHATASE / ASPARTATE AMINOTRANSFERASE / BLOOD UREA NITROGEN / CARBON DIOXIDE / CHLORIDE / CHOLESTEROL / CREATINE PHOSPHOKINASE / CREATININE / GLUCOSE / LACTATE DEHYDROGENASE / LIPASE / PHOSPHORUS / POTASSIUM / SODIUM / TOTAL BILIRUBIN / TOTAL PROTEIN / URIC ACID: tissue Plasma
[1] = 70 mg/kg, 120 h, dose level M1, time 5 day
[2] = 700 mg/kg, 72 h, dose level High, time 3 day
[3] = 700 mg/kg, 120 h, dose level High, time 5 day

CCCCCCCCc1ccc(O)cc1 [4-OCTYLPHENOL]
ABSOLUTE BASOPHIL [1]: 0 CELLS/uL
ABSOLUTE EOSINOPHIL [1]: 194 CELLS/uL
ABSOLUTE LYMPHOCYTE [1]: 9540.33 CELLS/uL
ABSOLUTE MONOCYTE [1]: 80.33 CELLS/uL
ABSOLUTE SEGMENTED NEUTROPHIL [1]: 918.67 CELLS/uL
BASOPHIL [1]: 0%
EOSINOPHIL [1]: 1.67%
ERYTHROCYTE COUNT [1]: 5.98 x10E6/uL
HEMATOCRIT [1]: 36.37%
HEMOGLOBIN [1]: 13.77 G/DL
LEUKOCYTE COUNT [1]: 10.73 x10E3/uL
LYMPHOCYTE [1]: 88.67%
MEAN CORPUSCULAR HEMOGLOBIN [1]: 23.03 pg
MEAN CORPUSCULAR VOLUME [1]: 60.9 fL
MONOCYTE [1]: 0.67%
NEUTROPHIL [1]: 9%
NUCLEATED RED BLOOD CELLS [1]: 0.33 /100WBC
PLATELET COUNT [1]: 1062 x10E3/uL
ALANINE AMINOTRANSFERASE [1]: 72 u/L
ALBUMIN [1]: 4.1 G/DL
ALKALINE PHOSPHATASE [1]: 380.67 u/L
ASPARTATE AMINOTRANSFERASE [1]: 88.67 u/L
BLOOD UREA NITROGEN [1]: 16.67 mg/dL
CARBON DIOXIDE [1]: 27 mmol/L
CHLORIDE [1]: 102.33 MEQ/L
CHOLESTEROL [1]: 57.67 mg/dL
CREATINE PHOSPHOKINASE [1]: 355.33 u/L
CREATININE [1]: 0.18 mg/dL
GLUCOSE [1]: 157.33 mg/dL
LACTATE DEHYDROGENASE [1]: 260.67 u/L
LIPASE [1]: 11.67 u/L
PHOSPHORUS [1]: 11.13 mg/dL
POTASSIUM [1]: 5.91 MEQ/L
SODIUM [1]: 142.87 MEQ/L
TOTAL BILIRUBIN [1]: 0.17 mg/dL
TOTAL PROTEIN [1]: 5.87 G/DL
URIC ACID [1]: 1.6 mg/dL
ABSOLUTE BASOPHIL [2]: 0 CELLS/uL
ABSOLUTE EOSINOPHIL [2]: 0 CELLS/uL
ABSOLUTE LYMPHOCYTE [2]: 8011 CELLS/uL
ABSOLUTE MONOCYTE [2]: 200 CELLS/uL
ABSOLUTE SEGMENTED NEUTROPHIL [2]: 2522.33 CELLS/uL
BASOPHIL [2]: 0%
EOSINOPHIL [2]: 0%
ERYTHROCYTE COUNT [2]: 6.31 x10E6/uL
HEMATOCRIT [2]: 38.63%
HEMOGLOBIN [2]: 14.83 G/DL
LEUKOCYTE COUNT [2]: 10.73 x10E3/uL
LYMPHOCYTE [2]: 73.33%
MEAN CORPUSCULAR HEMOGLOBIN [2]: 23.5 pg
MEAN CORPUSCULAR VOLUME [2]: 61.27 fL
MONOCYTE [2]: 2%
NEUTROPHIL [2]: 24.67%
NUCLEATED RED BLOOD CELLS [2]: 0.67 /100WBC
PLATELET COUNT [2]: 1294.33 x10E3/uL
ALANINE AMINOTRANSFERASE [2]: 165.67 u/L
ALBUMIN [2]: 3.93 G/DL
ALKALINE PHOSPHATASE [2]: 493 u/L
ASPARTATE AMINOTRANSFERASE [2]: 140.33 u/L
BLOOD UREA NITROGEN [2]: 33.33 mg/dL
CARBON DIOXIDE [2]: 26.67 mmol/L
CHLORIDE [2]: 97.67 MEQ/L
CHOLESTEROL [2]: 169.67 mg/dL
CREATINE PHOSPHOKINASE [2]: 748 u/L
CREATININE [2]: 0.58 mg/dL
GLUCOSE [2]: 147.33 mg/dL
LACTATE DEHYDROGENASE [2]: 302.33 u/L
LIPASE [2]: 10.33 u/L
PHOSPHORUS [2]: 12.5 mg/dL
POTASSIUM [2]: 5.29 MEQ/L
SODIUM [2]: 140.03 MEQ/L
TOTAL BILIRUBIN [2]: 0.9 mg/dL
TOTAL PROTEIN [2]: 6.17 G/DL
URIC ACID [2]: 1.03 mg/dL
ABSOLUTE BASOPHIL [3]: 0 CELLS/uL
ABSOLUTE EOSINOPHIL [3]: 0 CELLS/uL
ABSOLUTE LYMPHOCYTE [3]: 7185 CELLS/uL
ABSOLUTE MONOCYTE [3]: 222.33 CELLS/uL
ABSOLUTE SEGMENTED NEUTROPHIL [3]: 759.33 CELLS/uL
BASOPHIL [3]: 0%
EOSINOPHIL [3]: 0%
ERYTHROCYTE COUNT [3]: 7.06 x10E6/uL
HEMATOCRIT [3]: 42.33%
HEMOGLOBIN [3]: 15.83 G/DL
LEUKOCYTE COUNT [3]: 8.17 x10E3/uL
LYMPHOCYTE [3]: 85%
MEAN CORPUSCULAR HEMOGLOBIN [3]: 22.53 pg
MEAN CORPUSCULAR VOLUME [3]: 60.13 fL
MONOCYTE [3]: 3.33%
NEUTROPHIL [3]: 11.67%
NUCLEATED RED BLOOD CELLS [3]: 0 /100WBC
PLATELET COUNT [3]: 1069.33 x10E3/uL
ALANINE AMINOTRANSFERASE [3]: 175.67 u/L
ALBUMIN [3]: 4.03 G/DL
ALKALINE PHOSPHATASE [3]: 554.67 u/L
ASPARTATE AMINOTRANSFERASE [3]: 104 u/L
BLOOD UREA NITROGEN [3]: 17 mg/dL
CARBON DIOXIDE [3]: 27.67 mmol/L
CHLORIDE [3]: 100 MEQ/L
CHOLESTEROL [3]: 150.33 mg/dL
CREATINE PHOSPHOKINASE [3]: 369 u/L
CREATININE [3]: 0.37 mg/dL
GLUCOSE [3]: 133 mg/dL
LACTATE DEHYDROGENASE [3]: 179.33 u/L
LIPASE [3]: 10.67 u/L
PHOSPHORUS [3]: 11.13 mg/dL
POTASSIUM [3]: 6.27 MEQ/L
SODIUM [3]: 143.2 MEQ/L
TOTAL BILIRUBIN [3]: 0.3 mg/dL
TOTAL PROTEIN [3]: 6.37 G/DL
URIC ACID [3]: 1.23 mg/dL
